# Test results: patent US8906943B2, “Synthetic compounds and methods to decrease nicotine self-administration” (priority 2010, dated 2014)
# pIC50, pKi: −log10 of the molar value. Like-named read-outs stand apart in the source and are kept apart here. Marks after values point to notes of the source that are not given here.
# Legend:
# [1] = target: human CYP2A6 (Homo sapiens (Human), UniProt P11509); assay: Inhibition of human CYP2A6-mediated coumarin 7-hydroxylation; assay type: biochemical; conditions: for pKi: read-out: Ki human CYP 2A6
# Chain of human CYP2A6 (P11509 whole entry): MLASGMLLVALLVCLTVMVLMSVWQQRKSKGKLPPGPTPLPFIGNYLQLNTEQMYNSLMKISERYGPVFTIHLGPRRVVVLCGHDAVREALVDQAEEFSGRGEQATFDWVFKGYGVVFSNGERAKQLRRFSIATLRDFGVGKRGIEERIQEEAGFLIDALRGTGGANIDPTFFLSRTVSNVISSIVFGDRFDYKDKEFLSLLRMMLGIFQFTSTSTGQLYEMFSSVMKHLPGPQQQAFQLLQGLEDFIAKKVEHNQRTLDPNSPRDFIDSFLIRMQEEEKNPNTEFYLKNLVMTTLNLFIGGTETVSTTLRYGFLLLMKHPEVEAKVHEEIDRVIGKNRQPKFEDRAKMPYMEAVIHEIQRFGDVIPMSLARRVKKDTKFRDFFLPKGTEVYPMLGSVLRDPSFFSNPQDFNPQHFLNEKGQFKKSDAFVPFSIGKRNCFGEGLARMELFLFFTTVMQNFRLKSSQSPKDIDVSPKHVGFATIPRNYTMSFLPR
# Method: Our first studies were with highly purified human CYP2A6 that provided a convenient and relatively high-throughput measure of CYP2A6 inhibition. Full dose-response IC50 values (nine concentrations) were determined (Table 1).
# [2] = target: hCYP2B6 (Homo sapiens (Human), UniProt P20813); assay: CYP2B6 inhibition, vivid blue substrate O-dealkylation; assay type: biochemical; conditions: for pIC50: ND = no detectable inhibition
# Chain of hCYP2B6 (P20813 whole entry): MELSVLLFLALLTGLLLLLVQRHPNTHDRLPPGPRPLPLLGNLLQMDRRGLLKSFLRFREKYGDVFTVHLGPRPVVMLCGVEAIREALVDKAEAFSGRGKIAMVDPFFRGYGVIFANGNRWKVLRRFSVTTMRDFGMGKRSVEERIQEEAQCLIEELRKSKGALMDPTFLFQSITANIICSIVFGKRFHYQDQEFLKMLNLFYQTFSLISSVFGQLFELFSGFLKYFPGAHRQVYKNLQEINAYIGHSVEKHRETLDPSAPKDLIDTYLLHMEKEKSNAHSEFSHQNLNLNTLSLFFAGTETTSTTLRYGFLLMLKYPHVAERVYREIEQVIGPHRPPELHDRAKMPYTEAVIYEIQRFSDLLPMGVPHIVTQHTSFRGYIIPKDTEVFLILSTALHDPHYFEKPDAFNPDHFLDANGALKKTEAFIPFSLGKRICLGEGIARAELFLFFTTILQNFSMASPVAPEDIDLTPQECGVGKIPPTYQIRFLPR
# Method: (§1) To gain insight into the selectivity of the synthetic compounds for inhibition of other CYPs, we examined the major CYPs present in human liver. […] A typical incubation mixture (final volume 0.25 mL) contained 50 mM Tris or KPhos buffer (pH 7.5), 0.5 mM NADP^+, 2.0 mM G6P, 1 U of G6P dehydrogenase and 0.6 mg DETAPAC and the inhibitor was added last to minimize interaction with the protein. After mixing on ice, the reaction was initiated by the addition of substrate and incubated at 37° C. with shaking in air. Organic extracts were analyzed by fluorescence (for fluorometric substrates) or injected onto a Hitachi L-7100 system equipped with a Hitachi L-7400 UV detector. Separations were done with an Altex Ultrasphere ODS (4.6 mm×250 mm, 5 μm) column and analytes were eluted with an isocratic solvent system consisting of water/acetonitrile/methanol (30:10:60, v/v/v) at a flow rate of 1.0 mL/min. Quantification of substrate and metabolite was determined from peak areas of the chromatogram and comparison with standard curves. IC50 values were determined with GraphPad Prism and kinetic data was converted into IC50 values. Each kinetic determination was reported as the mean±SD as described below. […] To measure CYP2A6 activity, coumarin 7-hydroxylation was determined as described in Denton et al., supra. To measure CYP3A4 activity, testosterone 6-hydroxylation was determined as described in Denton et al., supra. To measure CYP2E1, CYP2B6, CYP2C9, CYP2C19 and CYP2D6 activity, isozyme specific vivid blue substrate O-dealkylation was determined via a modified PanVera Vivid Assay Protocol as described in Denton et al., supra.
# [3] = target: CYP2B1 (Rattus norvegicus (Rat), UniProt P00176); assay: Inhibition of rat CYP2B1; assay type: biochemical; conditions: pH 7.5, Inhibitor present at 100 μM, read-out: rCYP2B1 % inhibition
# Chain of CYP2B1 (P00176 whole entry, the tested form may be a part): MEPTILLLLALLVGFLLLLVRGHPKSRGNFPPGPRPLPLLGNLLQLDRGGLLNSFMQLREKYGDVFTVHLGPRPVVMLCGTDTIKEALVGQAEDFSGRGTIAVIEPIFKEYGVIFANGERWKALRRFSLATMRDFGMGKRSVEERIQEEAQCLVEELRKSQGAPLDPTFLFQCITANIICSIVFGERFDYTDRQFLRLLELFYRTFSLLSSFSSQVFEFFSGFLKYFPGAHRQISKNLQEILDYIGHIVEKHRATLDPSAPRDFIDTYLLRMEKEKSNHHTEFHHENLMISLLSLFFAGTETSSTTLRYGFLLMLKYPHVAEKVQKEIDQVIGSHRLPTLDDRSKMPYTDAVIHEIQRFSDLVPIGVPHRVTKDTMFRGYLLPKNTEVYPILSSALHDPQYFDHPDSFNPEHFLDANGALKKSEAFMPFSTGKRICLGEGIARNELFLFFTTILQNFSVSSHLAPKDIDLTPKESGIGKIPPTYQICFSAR
# [4] = tested on: nicotine self-administration in male Wistar rats; assay: Nicotine i.v. self-administration (IVSA) in rats, FR1 schedule; assay type: in vivo, rat; conditions: for Number of nicotine infusions, Compound (15 mg/kg): 15 mg/kg i.p. 30 minutes before i.v. self-administration of 0.03 mg/kg/infusion nicotine; for % Change (decrease in nicotine self-administration): versus vehicle; for Number of nicotine infusions, Compound (25 mg/kg): 25 mg/kg i.p. 30 minutes before i.v. self-administration of 0.03 mg/kg/infusion nicotine; for effect on nicotine intake, ANOVA of dose response: 1-hour self-administration sessions; for ED50: Rattus norvegicus, iv, rats, read-out: apparent ED50, nicotine IVSA
# Method: Male, Wistar rats trained in a paradigm of nicotine i.v. self-administration (IVSA) generally related to a modification of a previously published protocol (Watkins et al., Pharmacol Biochem Behavior 62, 743-751 (1999)). Rats were treated with test compounds I-7. […] At 3.0 mg/kg, responding for nicotine was decreased by 62% when compared to control (vehicle-treated) conditions. […] On the basis of these initial studies, more extensive work was done and IVSA studies of compounds 8, 10 and 11 were conducted.
# As with all the compounds examined in this study, there was no carry-over effect. […] The dose-effect function for treatment of 11 on nicotine self-administration is shown in [FIG. 2].
# [5] = target: CYP2E1 (Homo sapiens (Human), UniProt P05181); assay: CYP2E1 inhibition, vivid blue substrate O-dealkylation; assay type: biochemical; conditions: for inhibition of human CYP 2E1 (in words): 10 μM; for inhibition at 10 µM: human, pH 7.5, probe isozyme specific vivid blue substrate (O-dealkylation), mean of triplicate, read-out: CYP2E1 Percent Inhibition
# Chain of CYP2E1 (P05181 whole entry): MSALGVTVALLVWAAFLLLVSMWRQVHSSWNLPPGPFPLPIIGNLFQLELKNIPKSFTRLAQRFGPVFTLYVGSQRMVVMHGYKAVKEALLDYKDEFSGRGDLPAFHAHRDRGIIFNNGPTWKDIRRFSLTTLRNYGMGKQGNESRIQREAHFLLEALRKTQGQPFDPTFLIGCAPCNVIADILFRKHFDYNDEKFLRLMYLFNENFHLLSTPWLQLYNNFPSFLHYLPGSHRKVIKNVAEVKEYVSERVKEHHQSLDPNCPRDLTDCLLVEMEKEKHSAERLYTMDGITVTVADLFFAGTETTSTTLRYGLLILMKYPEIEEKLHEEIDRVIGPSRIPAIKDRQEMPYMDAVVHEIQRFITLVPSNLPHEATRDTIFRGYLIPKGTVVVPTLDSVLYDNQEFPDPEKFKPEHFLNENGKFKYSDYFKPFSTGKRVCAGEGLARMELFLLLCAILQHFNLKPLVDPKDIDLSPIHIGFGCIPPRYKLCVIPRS
# Method: as §1
# [6] = target: CYP2C9 (Homo sapiens (Human), UniProt P11712); assay: CYP2C9 inhibition, vivid blue substrate O-dealkylation; assay type: biochemical; conditions: pH 7.5, probe isozyme specific vivid blue substrate (O-dealkylation), mean of triplicate, read-out: CYP2C9 Percent Inhibition
# Chain of CYP2C9 (P11712 whole entry): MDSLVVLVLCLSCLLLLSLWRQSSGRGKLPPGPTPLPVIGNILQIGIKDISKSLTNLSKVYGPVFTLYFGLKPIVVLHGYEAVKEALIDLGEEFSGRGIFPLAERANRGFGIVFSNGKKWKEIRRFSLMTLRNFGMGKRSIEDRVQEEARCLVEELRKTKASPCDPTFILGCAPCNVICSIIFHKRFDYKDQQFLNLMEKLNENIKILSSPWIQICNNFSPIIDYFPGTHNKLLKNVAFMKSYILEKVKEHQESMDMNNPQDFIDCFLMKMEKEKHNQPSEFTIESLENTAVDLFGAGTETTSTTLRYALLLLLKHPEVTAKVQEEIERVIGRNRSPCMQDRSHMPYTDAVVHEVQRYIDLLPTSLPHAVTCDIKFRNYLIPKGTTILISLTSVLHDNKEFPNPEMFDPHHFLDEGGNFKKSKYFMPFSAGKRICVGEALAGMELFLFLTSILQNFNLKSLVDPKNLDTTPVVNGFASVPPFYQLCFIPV
# Method: as §1
# [7] = target: CYP2C19 (Homo sapiens (Human), UniProt P33261); assay: CYP2C19 inhibition, vivid blue substrate O-dealkylation; assay type: biochemical; conditions: pH 7.5, probe isozyme specific vivid blue substrate (O-dealkylation), mean of triplicate, read-out: CYP2C19 Percent Inhibition
# Chain of CYP2C19 (P33261 whole entry): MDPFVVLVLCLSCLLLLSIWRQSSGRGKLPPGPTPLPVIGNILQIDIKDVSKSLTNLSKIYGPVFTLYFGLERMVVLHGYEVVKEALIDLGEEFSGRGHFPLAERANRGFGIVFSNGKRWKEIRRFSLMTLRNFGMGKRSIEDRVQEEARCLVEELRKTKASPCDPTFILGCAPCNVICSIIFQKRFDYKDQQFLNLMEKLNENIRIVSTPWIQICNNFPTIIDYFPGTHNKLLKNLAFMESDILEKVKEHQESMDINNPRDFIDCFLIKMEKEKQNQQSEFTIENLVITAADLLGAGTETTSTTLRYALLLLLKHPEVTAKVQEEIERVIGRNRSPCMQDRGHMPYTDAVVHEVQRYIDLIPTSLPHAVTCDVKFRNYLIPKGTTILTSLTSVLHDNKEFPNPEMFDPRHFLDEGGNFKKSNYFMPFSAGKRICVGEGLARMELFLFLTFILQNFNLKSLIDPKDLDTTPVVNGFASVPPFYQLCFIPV
# Method: as §1
# [8] = target: CYP2D6 (Homo sapiens (Human), UniProt P10635); assay: CYP2D6 inhibition, vivid blue substrate O-dealkylation; assay type: biochemical; conditions: pH 7.5, probe isozyme specific vivid blue substrate (O-dealkylation), mean of triplicate, read-out: CYP2D6 Percent Inhibition
# Chain of CYP2D6 (P10635 whole entry): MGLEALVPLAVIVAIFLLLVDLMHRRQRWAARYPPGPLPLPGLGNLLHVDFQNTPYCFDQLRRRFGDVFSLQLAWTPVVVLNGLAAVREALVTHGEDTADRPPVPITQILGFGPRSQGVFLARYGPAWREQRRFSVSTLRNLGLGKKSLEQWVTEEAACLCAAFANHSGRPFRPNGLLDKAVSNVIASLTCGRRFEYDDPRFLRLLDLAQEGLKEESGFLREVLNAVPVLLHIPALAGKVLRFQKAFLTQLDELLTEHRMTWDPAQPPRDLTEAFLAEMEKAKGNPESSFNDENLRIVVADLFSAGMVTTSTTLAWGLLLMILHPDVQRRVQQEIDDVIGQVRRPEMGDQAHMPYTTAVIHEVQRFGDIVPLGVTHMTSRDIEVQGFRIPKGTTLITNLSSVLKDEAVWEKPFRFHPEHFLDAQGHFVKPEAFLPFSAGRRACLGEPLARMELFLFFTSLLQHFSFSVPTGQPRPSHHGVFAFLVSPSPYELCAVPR
# Method: as §1
# [9] = target: CYP3A4 (Homo sapiens (Human), UniProt P08684); assay: in vitro; conditions: pH 7.5
# Chain of CYP3A4 (P08684 whole entry): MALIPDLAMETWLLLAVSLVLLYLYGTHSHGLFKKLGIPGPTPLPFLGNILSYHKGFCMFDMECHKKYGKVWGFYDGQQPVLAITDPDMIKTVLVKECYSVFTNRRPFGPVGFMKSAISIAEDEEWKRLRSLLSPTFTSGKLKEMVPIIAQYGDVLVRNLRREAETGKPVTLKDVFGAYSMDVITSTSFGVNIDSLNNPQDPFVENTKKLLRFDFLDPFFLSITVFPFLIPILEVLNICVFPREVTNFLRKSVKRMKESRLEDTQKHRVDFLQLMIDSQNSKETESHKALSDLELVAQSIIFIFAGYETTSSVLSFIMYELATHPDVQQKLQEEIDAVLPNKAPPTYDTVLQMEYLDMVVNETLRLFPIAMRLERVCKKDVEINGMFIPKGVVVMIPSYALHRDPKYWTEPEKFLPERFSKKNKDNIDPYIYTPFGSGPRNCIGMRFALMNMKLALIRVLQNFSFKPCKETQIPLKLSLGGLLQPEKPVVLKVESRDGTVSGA
# Method: as §1, with “Separations were done with an Altex Ultrasphere ODS (4.6 mm×250 mm, 5 μm) column and analytes were eluted with an isocratic solvent system consisting of water/acetonitrile/methanol (30:10:60, v/v/v) at a flow rate of 1.0 mL/min.” left out, “values.” for “values. Each kinetic determination was reported as the mean±SD as described below.”
# [10] = tested on: food intake in rats; assay: Order and food effects, operant food sessions; assay type: in vivo, rat; conditions: for Food Effects: mean ± SEM
# Text: The conclusion is that the effect of 10 and 11 was selective and highly efficacious on a biological target and not a promiscuous non-specific behavioral effect.
# [11] = Table 3, read-out: CYP2A6 Inhibition IC50
# [12] = Table 1, purified human CYP2A6, nine concentrations, read-out: hCYP2A6 IC50
smiles,measurement,setting,value
"N[C@@H]1C[C@H]1c1ccccc1 (racemic) [Tranylcypromine, reference compound]",pIC50,[1]; [11],6.63
NCc1cc(-c2cccnc2)n[nH]1 [Compound 1],pIC50,[1]; [12],6.22
same,pIC50,[2],4.18
same,inhibition at 100 µM,[3],53.8%
same,"Number of nicotine infusions, Compound (15 mg/kg)",[4]; FR1,11.6 ± 2.9
same,% Change (decrease in nicotine self-administration),[4]; 15 mg/kg i.p.,14.7%
NCc1cc(-c2cccnc2)no1 [Compound 2],pIC50,[1]; [12],6.10
same,pIC50,[2],4.17
same,inhibition at 100 µM,[3],55.3%
same,"Number of nicotine infusions, Compound (15 mg/kg)",[4]; FR1,8.4 ± 1.7
same,% Change (decrease in nicotine self-administration),[4]; 15 mg/kg i.p.,19.2%
same,"Number of nicotine infusions, Compound (25 mg/kg)",[4]; FR1,5.6 ± 1.6^d
same,% Change (decrease in nicotine self-administration),[4]; 25 mg/kg i.p.,60. %
"Clc1ccc(Cn2ccnc2)cc1 [Compound 3, N-(4-Chlorobenzyl)imidazole]",pIC50,[1]; [12],6.80
same,pKi,[1],7.10
same,inhibition of human CYP 2B6 (in words),[2],inhibited human CYP 2B6 to a certain extent
same,pIC50,[2],4.92
same,inhibition at 100 µM,[3],35.5%
same,inhibition of human CYP 2E1 (in words),[5],some inhibition
same,inhibition at 10 µM,[5],87%
same,inhibition at 10 µM,[6],32%
same,inhibition at 10 µM,[7],43%
same,inhibition at 10 µM,[8],48%
same,"Number of nicotine infusions, Compound (15 mg/kg)",[4]; FR1,13.0 ± 2.7
same,% Change (decrease in nicotine self-administration),[4]; 15 mg/kg i.p.,23.6%
NCc1ccc(-c2cccnc2)s1 [Compound 4],inhibition at 100 µM,[3],42.7%
same,"Number of nicotine infusions, Compound (15 mg/kg)",[4]; FR1,11.8 ± 3.2
same,% Change (decrease in nicotine self-administration),[4]; 15 mg/kg i.p.,23.4%
Cc1ccsc1-c1cccnc1 [Compound 5],pIC50,[1]; [12],[…]
same,inhibition at 100 µM,[3],47.9%
same,"Number of nicotine infusions, Compound (15 mg/kg)",[4]; FR1,8.8 ± 1.6
same,"Number of nicotine infusions, Compound (25 mg/kg)",[4]; FR1,1.6 ± 0.7^d
NCc1ccc(-c2cccnc2)o1 [Compound 6],pIC50,[1]; [12],6.70
same,inhibition at 100 µM,[3],46.6%
same,"Number of nicotine infusions, Compound (15 mg/kg)",[4]; FR1,16.8 ± 2.3^d
same,% Change (decrease in nicotine self-administration),[4]; 15 mg/kg i.p.,27.6%
same,"Number of nicotine infusions, Compound (25 mg/kg)",[4]; FR1,8.3 ± 2.1^d
same,% Change (decrease in nicotine self-administration),[4]; 25 mg/kg i.p.,64.2%
"c1cncc(Cn2ccnc2)c1 [Compound 7, N-(3-Pyridylmethyl)imidazole]",pIC50,[1]; [12],< 3.70
same,pKi,[1],< 3.70
same,inhibition at 100 µM,[3],43.3%
same,"Number of nicotine infusions, Compound (15 mg/kg)",[4]; FR1,7.5 ± 1.9^d
same,% Change (decrease in nicotine self-administration),[4]; 15 mg/kg i.p.,28.6%
c1cncc(-c2c[nH]cn2)c1 [Compound 8],pIC50,[1]; [12],3.10
same,pIC50,[1]; [11],6.10
same,"effect on nicotine intake, ANOVA of dose response",[4]; i.p.,failed to reveal a significant effect
"c1cc(CCn2ccnc2)ccn1 [Compound 9, N-(4-Pyridylethyl)imidazole]",inhibition at 100 µM,[3],53.5%
same,nicotine self-administration under a FR schedule (in words),"[4]; 15 mg/kg, i.p., 30-min prior",decreased nicotine self-administration
"c1cn(CC2CCCCC2)cn1 [Compound 10, N-(Cyclohexylmethyl)imidazole]",pIC50,[1]; [12],3.77
same,inhibition of human CYP 2B6 (in words),[2],inhibited human CYP 2B6 to a certain extent
same,pIC50,[2],4.96
same,inhibition at 100 µM,[3],56.9%
same,inhibition at 10 µM,[9],27%
same,inhibition of human CYP 2E1 (in words),[5],some inhibition
same,inhibition at 10 µM,[5],89%
same,inhibition at 10 µM,[6],44%
same,inhibition at 10 µM,[7],24%
same,inhibition at 10 µM,[8],34%
same,ED50,[4],4 mg/kg
same,"effect on nicotine intake, ANOVA of dose response",[4]; i.p.,significant effect
same,Food Effects,[10]; Dose 0.5 mg/kg,80 ± 1.8
same,Food Effects,[10]; Dose 1.58 mg/kg,79 ± 2.5
same,Food Effects,[10]; Dose 5.0 mg/kg,77 ± 3.2
"c1ccc(CCn2ccnc2)cc1 [Compound 11, 1-Phenethyl-2-imidazol-1-yl]",pIC50,[1]; [12],3.21
same,pIC50,[1]; [11],6.21
same,inhibition of human CYP 2B6 (in words),[2],inhibited human CYP 2B6 to a certain extent
same,pIC50,[2],< 4.70
same,inhibition at 100 µM,[3],67.7%
same,inhibition at 10 µM,[9],63%
same,inhibition of human CYP 2E1 (in words),[5],some inhibition
same,inhibition at 10 µM,[5],88%
same,inhibition at 10 µM,[6],13%
same,inhibition at 10 µM,[7],21%
same,inhibition at 10 µM,[8],62%
same,ED50,[4],3 mg/kg
same,"effect on nicotine intake, ANOVA of dose response",[4]; i.p.,significant effect
same,effect on food intake (in words),"[10]; 5 mg/kg, 30-min operant food sessions",significant suppression
same,Food Effects,[10]; Dose 2.8 mg/kg,79 ± 1.3
same,Food Effects,[10]; Dose 5.0 mg/kg,63 ± 5.6
"CNC1(C)C2CCC(C2)C1(C)C (centres unmarked) [Mecamylamine, reference compound]",decrease in responding for nicotine versus vehicle,"[4]; 3.0 mg/kg, s.c., 30 minutes before the session, FR1",62%
